The structures appear in SMILES notation. Counter-ions that a name gives are not always drawn. Like-named read-outs stand apart in the source and are kept apart here.

One data set deals with SARS-CoV-2. The following applies: cited from earlier work; for SARS-CoV-2 CPE EC50: Vero E6 cells infected for 72 h, NPC qHTS in-house database. A general note: Quantitative high-throughput screening tests each substance at several concentrations.
Data set [1] deals with T1, hERG channel (Homo sapiens, UniProt Q12809).
For data set [2], the target named is T1, hERG channel. The following applies: cited from earlier work.
The test system of another data set is autophagy. The settings on record: in words; screening data; cited from earlier work.
For data set [3] the following is noted: cited from earlier work.
For a further data set, the system named is phospholipidosis (PLD). The following applies: read-out: PLD EC50; NPC qHTS in-house database; cited from earlier work.
A further data set relates to COVID-19. The settings on record: patients hospitalized with COVID-19, observational; cited from earlier work.
Data set [4] has as its system Middle East respiratory syndrome (MERS)-CoV. The settings on record: cited from earlier work.
Another data set deals with SARS-CoV-1. The settings on record: cited from earlier work.
The mark [5] stands for this setting: tier stated per drug in the text, based on hERG curve rank.

T1 sequence (Q12809 whole entry): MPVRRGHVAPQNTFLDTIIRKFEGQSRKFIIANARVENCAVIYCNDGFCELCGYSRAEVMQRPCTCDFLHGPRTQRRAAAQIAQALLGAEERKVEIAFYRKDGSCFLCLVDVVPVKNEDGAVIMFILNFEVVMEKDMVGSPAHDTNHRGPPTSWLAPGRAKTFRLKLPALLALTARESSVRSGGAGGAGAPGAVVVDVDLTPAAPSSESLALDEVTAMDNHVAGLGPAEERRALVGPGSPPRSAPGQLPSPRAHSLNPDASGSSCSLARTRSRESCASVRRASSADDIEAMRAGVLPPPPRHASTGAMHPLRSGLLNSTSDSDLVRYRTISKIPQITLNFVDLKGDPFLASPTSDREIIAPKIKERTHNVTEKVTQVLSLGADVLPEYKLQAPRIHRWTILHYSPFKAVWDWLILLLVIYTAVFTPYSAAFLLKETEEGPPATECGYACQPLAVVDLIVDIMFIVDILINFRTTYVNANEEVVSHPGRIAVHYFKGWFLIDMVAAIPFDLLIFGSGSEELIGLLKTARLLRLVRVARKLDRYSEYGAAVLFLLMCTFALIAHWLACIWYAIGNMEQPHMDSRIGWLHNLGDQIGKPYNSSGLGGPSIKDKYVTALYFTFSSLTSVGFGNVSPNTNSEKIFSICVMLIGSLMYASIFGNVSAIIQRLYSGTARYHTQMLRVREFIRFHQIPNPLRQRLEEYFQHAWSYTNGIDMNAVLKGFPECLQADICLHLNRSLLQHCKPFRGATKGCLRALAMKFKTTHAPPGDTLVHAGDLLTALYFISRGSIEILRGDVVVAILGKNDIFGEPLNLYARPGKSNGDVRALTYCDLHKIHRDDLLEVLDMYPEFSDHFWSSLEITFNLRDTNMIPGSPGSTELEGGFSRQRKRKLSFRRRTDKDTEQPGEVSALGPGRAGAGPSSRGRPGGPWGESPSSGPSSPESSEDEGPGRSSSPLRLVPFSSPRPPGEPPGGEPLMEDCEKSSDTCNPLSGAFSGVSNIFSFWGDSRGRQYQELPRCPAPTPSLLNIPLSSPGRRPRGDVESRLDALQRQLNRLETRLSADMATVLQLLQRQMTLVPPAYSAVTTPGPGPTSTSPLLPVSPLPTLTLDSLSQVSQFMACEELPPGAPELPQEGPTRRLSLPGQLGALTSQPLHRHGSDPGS

With `NC(=O)c1nc(F)c[nH]c1=O` [Favipiravir], the “SARS-CoV-2 CPE EC50” value with SARS-CoV-2 is “Inactive”.

For the compound `O=C(CCCN1CCC(O)(c2ccc(Cl)cc2)CC1)c1ccc(F)cc1` [haloperidol], the hERG liability entry at hERG channel [1] was “high (key: low (curve rank < 1.0); medium (curve rank between 1.0 and 4.0); high (curve rank > 4.0))”.

Turning to `CC[C@H]1OC(=O)[C@H](C)[C@@H](O[C@H]2C[C@@](C)(OC)[C@@H](O)[C@H](C)O2)[C@H](C)[C@@H](O[C@@H]2O[C@H](C)C[C@H](N(C)C)[C@H]2O)[C@](C)(O)C[C@@H](C)CN(C)[C@H](C)[C@@H](O)[C@]1(C)O` [Azithromycin], the “hERG IC50” value on hERG channel [2] (NPC qHTS in-house database) is “Inactive”. Besides, the hERG inhibition result at hERG channel [2] (in words, screening data) is “no hERG inhibition”.

With `CC(=O)Oc1ccccc1C(=O)Nc1ncc([N+](=O)[O-])s1` [Nitazoxanide], the “hERG IC50” value at hERG channel [2] (NPC qHTS in-house database) is “Inactive”. The “activity in the autophagy assay” value with autophagy is reported as “no activity”. For the same compound, the “activity in the CPE assay” value with SARS-CoV-2 (in words, screening data) is reported as “moderate activity”.

Turning to `CN1CCCCC1CCN1c2ccccc2Sc2ccc([S+](C)[O-])cc21` (stereo not drawn) [mesoridazine], the hERG liability entry on hERG channel [1] is “high (key: low (curve rank < 1.0); medium (curve rank between 1.0 and 4.0); high (curve rank > 4.0))”. Further, the TdP risks entry in data set [3] (in vivo) was “known TdP risks”.

Broadly, the EC50 is the concentration that produces a half-maximal response. In the case of `O=C(Nc1ccc([N+](=O)[O-])cc1Cl)c1cc(Cl)ccc1O` [Niclosamide], at hERG channel [2] (NPC qHTS in-house database), the “hERG IC50” value is listed as “Inactive”. The “activity in the autophagy assay” value with autophagy is “moderate activity”. Moreover, the EC50 in the data set on phospholipidosis (PLD) was 1 µM.

For `CCN(CC)CCCC(C)Nc1ccnc2cc(Cl)ccc12` (stereo not drawn) [Chloroquine], the EC50 in the data set with phospholipidosis (PLD) was 11 µM.

With `NC(N)=Nc1nc(CSCCC(N)=NS(N)(=O)=O)cs1` [Famotidine], the clinical outcomes with COVID-19 is “improved clinical outcomes”. In the data set on SARS-CoV-2, the “SARS-CoV-2 CPE EC50” value was “Inactive”.

Take `CN(C)CCCN1c2ccccc2Sc2ccc(Cl)cc21` [Chlorpromazine]: the hERG liability result at hERG channel [1] (setting [5]) is “high (high (curve rank > 4.0))”. For the same compound, the TdP risks result in [3] (in vivo) was “known TdP risks”. For the same compound, the “viral replication of MERS-CoV” value in data set [4] is “inhibit in vitro viral replication”. Besides, in the data set on SARS-CoV-1, the “viral replication of SARS-CoV-1” value is on record as “inhibit in vitro viral replication”. In addition, in the data set with phospholipidosis (PLD), the EC50 was 10 µM.

For the compound `COc1ccc(CCN2CCC(Nc3nc4ccccc4n3Cc3ccc(F)cc3)CC2)cc1` [Astemizole], in [3], the TdP risks entry is “known TdP risks”. Moreover, the arrhythmias result in data set [3] (in vivo) is on record as “fatal arrythmias”.

By IC50 is commonly meant the point on the concentration scale where inhibition reaches its midpoint. Consider `CC[C@@H](C)[C@H]1O[C@]2(CC[C@@H]1C)C[C@@H]1C[C@@H](C/C=C(\C)[C@@H](O[C@H]3C[C@H](OC)[C@@H](O[C@H]4C[C@H](OC)[C@@H](O)[C@H](C)O4)[C@H](C)O3)[C@@H](C)/C=C/C=C3\CO[C@@H]4[C@H](O)C(C)=C[C@@H](C(=O)O1)[C@]34O)O2` [Ivermectin], for which the hERG liability result at hERG channel [1] (setting [5]) was “moderate”. Also, at hERG channel [2] (read-out: hERG IC50, NPC qHTS in-house database), the IC50 was 9.7 µM. For the same compound, the EC50 in the data set on phospholipidosis (PLD) is 17 µM.

Take `CCN(CCO)CCCC(C)Nc1ccnc2cc(Cl)ccc12` (stereo not drawn) [Hydroxychloroquine sulfate]: at hERG channel [2] (NPC qHTS in-house database), the “hERG IC50” value is on record as “Inactive”. Also, the “SARS-CoV-2 CPE EC50” value in the data set on SARS-CoV-2 was “Inactive”.
